# Laboratory results published in patent US20100204247A1, “N-SUBSTITUTED OXINDOLINE DERIVATIVES AS CALCIUM CHANNEL BLOCKERS” (priority 2007, published 2010).
# pIC50: −log10 of the molar value.
# Biological target: T1, N-type calcium channel (Human Cav2.2 channels) (Homo sapiens, UniProt Q00975)
# T1 construct: expressed in transfected cells
# Assay: N-type calcium channel (Cav2.2) antagonist assays: fluorescent potassium depolarization assay, IonWorks and PatchXpress/manual patch clamp electrophysiology
# Type: cell-based
# Details: in the aforementioned assays (Assay Examples 1-3); the specific assay is not stated; read-out: IC50, antagonizing the N-type calcium channel
# Source text: Fluorescent Assay for Cav2.2 Channels using Potassium Depolarization to Initiate Channel Opening
# Human Cav2.2 channels were stably expressed in KEK293 cells along with alpha2-delta and beta subunits of voltage-gated calcium channels. An inwardly rectifying potassium channel (Kir2.3) was also expressed in these cells to allow more precise control of the cell membrane potential by extracellular potassium concentration. At low bath potassium concentration, the membrane potential is relatively negative, and is depolarized as the bath potassium concentration is raised. In this way, the bath potassium concentration can be used to regulate the voltage-dependent conformations of the channels. […]
# Calcium influx through Cav2.2 channels is determined using a calcium-sensitive fluorescent dye in combination with a fluorescent plate reader. Fluorescent changes were measured with either a VIPR (Aurora Instruments) or FLIPR (Molecular Devices) plate reader.
# • 1. […] Read cell plate on VIPR instrument, Excitation=480 nm, Emission=535 nm • 9. With VIPR continuously reading, add 0.1 mL (96-well plate) or 0.03 mL (384-well plate) of Depolarization Buffer, which is 2× the final assay concentration, to the cell plate. […]
# Block of N-type calcium channels is evaluated utilizing the IonWorks HT 384 well automated patch clamp electrophysiology device. […]
# T1 sequence (Q00975 whole entry): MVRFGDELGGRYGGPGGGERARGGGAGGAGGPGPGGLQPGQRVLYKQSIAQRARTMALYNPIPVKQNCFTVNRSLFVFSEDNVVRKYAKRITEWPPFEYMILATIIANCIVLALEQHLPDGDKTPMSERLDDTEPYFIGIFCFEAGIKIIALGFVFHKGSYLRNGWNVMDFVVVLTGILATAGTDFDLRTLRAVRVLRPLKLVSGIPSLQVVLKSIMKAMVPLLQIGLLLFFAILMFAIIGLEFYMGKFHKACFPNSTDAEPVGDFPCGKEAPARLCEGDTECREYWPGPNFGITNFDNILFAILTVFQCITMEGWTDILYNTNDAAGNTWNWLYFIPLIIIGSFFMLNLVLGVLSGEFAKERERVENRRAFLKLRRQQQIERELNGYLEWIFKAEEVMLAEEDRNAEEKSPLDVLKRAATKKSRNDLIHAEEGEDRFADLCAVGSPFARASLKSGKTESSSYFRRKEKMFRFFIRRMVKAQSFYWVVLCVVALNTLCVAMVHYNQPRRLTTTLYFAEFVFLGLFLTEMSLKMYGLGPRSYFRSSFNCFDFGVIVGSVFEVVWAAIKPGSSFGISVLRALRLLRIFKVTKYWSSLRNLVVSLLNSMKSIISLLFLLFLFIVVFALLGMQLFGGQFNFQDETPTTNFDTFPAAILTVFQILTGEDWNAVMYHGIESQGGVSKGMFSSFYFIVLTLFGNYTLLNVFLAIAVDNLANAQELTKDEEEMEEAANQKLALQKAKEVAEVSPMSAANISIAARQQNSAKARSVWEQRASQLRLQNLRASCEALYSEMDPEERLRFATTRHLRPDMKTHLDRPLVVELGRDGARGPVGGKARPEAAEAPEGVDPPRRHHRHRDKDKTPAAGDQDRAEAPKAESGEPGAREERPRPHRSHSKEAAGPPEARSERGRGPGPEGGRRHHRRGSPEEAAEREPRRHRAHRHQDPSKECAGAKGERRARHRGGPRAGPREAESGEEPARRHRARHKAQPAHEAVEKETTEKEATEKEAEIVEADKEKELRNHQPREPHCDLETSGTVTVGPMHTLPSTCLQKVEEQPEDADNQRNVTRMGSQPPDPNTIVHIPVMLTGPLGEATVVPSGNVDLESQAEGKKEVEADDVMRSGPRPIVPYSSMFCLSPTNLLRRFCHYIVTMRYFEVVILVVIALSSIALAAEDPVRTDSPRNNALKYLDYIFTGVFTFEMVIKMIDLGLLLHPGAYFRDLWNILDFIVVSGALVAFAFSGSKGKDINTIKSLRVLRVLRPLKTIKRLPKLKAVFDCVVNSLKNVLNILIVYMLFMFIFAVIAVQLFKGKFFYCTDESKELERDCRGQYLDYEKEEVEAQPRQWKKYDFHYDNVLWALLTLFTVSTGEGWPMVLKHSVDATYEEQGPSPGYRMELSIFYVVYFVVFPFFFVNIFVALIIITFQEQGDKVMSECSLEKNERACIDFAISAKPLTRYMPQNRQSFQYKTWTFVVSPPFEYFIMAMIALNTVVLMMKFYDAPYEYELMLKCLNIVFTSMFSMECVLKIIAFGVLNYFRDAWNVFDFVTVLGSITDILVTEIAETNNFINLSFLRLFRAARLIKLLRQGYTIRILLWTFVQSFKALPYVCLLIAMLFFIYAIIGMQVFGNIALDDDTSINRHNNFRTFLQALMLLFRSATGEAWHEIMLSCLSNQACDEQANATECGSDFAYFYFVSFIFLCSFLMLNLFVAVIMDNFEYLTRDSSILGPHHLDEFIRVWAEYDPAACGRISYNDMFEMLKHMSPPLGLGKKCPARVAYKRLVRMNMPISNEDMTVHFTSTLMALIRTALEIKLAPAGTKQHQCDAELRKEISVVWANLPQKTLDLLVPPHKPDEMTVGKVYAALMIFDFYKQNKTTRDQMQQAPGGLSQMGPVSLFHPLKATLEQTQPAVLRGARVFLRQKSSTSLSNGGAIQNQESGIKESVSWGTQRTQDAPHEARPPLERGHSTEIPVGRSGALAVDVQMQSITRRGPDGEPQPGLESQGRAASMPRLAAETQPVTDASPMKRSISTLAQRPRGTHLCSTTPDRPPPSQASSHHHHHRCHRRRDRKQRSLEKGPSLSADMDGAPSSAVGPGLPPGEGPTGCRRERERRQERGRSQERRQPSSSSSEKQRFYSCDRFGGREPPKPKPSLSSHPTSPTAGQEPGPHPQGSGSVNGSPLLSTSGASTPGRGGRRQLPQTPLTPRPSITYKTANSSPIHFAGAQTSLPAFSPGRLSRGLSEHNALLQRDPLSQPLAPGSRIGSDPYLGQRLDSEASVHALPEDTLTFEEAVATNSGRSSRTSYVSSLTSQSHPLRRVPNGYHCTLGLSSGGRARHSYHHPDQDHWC
row,Compound,pIC50
1,"CC1(Cc2cncnc2)C(=O)Nc2ccc(-c3cccc(OCC(F)(F)F)c3)cc21 (centres unmarked) [Example 15, 3-methyl-3-(pyrimidin-5-ylmethyl)-5-[3-(2,2,2-trifluoroethoxy)phenyl]-1,3-dihydro-2H-indol-2-one]",6.85
2,"CC1(Cc2cc(F)cc(F)c2)C(=O)Nc2ccc(-c3ccc(F)cc3)cc21 (centres unmarked) [Example 12, 3-(3,5-difluorobenzyl)-5-(4-fluorophenyl)-3-methyl-1,3-dihydro-2H-indol-2-one]",6.23
